Measured values reported in PubChem BioAssay (NCI).
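These data come from cells grown in 96-well plates and exposed to compound for 48 hours at five concentrations. GI50 marks 50% less growth. The concentration for full growth arrest is given as TGI.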

Experiments:
Test in all cases: growth of human tumour cells (NCI), 48 h
[1] = test system: 786-0 renal
[2] = test system: HCC-2998 colon
[3] = test system: HCT-116 colon
[4] = test system: HT29 colon
[5] = test system: IGROV1 ovarian
[6] = test system: KM12 colon
[7] = test system: OVCAR-4 ovarian
[8] = test system: OVCAR-5 ovarian
[9] = test system: SNB-75 CNS
[10] = test system: UACC-257 melanoma

Structure (SMILES)	GI50 [1]	TGI [1]	GI50 [2]	TGI [2]	GI50 [3]	TGI [3]	GI50 [4]	TGI [4]	GI50 [5]	TGI [5]	GI50 [6]	TGI [6]	GI50 [7]	TGI [7]	GI50 [8]	TGI [8]	GI50 [9]	TGI [9]	GI50 [10]	TGI [10]
Cc1nc2cc(Nc3nc(Nc4ccc(F)cc4)nc(N4CCCC4)n3)ccc2n1Cc1ccccc1	1.85 µM	3.46 µM	1.93 µM	3.73 µM	1.66 µM	3.09 µM	1.93 µM	3.89 µM	1.9 µM	3.48 µM	1.86 µM	3.51 µM	1.62 µM	4 µM	1.72 µM	3.42 µM	1.58 µM	3.45 µM	2.32 µM	5.88 µM
C=CCn1c(=O)c(C(=O)NC(=O)OCC)cn(C2CCCCC2)c1=O		> 100 µM		> 100 µM		> 100 µM		> 100 µM		> 100 µM		> 100 µM		> 100 µM		> 100 µM		> 100 µM		> 100 µM
CCOC(=O)Cn1c(=O)[nH]c(=O)c2[nH]cnc21		> 100 µM		> 100 µM		> 100 µM		> 100 µM		> 100 µM		> 100 µM		> 100 µM		> 100 µM		> 100 µM		> 100 µM
O=C1NC(Cc2ccccc2)C(=O)N2CCCC12 (stereo not given)		> 100 µM		> 100 µM		> 100 µM		> 100 µM		> 100 µM		> 100 µM		> 100 µM		> 100 µM		> 100 µM		> 100 µM
